Test results as given in US20150190377A1, “NEURONAL REGENERATION” (The Regents of the University of California, a California …, priority 2014, published 2015).
Residue numbers refer to the chain shown, from its start.

Legend:
SOCS3 [1] = target: T1, SOCS3 (Homo sapiens, UniProt O14543); experiment: Western blot of phosphorylated STAT3 (SOCS3 inhibition), human 293 cells; assay type: cell-based; conditions: increasing concentration
T1 construct: Western blot analysis of cultured human (293) cells; endogenous in cells; host or cells: human 293 cells
T1 sequence (O14543 1-225): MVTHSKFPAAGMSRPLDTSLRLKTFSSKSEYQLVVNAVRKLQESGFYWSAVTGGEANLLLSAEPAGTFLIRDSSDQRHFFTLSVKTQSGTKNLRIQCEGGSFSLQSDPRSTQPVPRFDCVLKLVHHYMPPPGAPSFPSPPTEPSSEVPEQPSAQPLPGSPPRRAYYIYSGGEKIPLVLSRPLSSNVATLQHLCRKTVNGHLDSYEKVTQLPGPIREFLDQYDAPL
Experimental: (§1) Likewise, the inhibition of SOCS3 was tested following the phosphorylated form of STAT3.

SOCS3 [2] = target: T2, SOCS3 (Mus musculus, UniProt O35718); experiment: Western blot of phosphorylated STAT3 (SOCS3 inhibition), mouse N2A cells; assay type: cell-based; conditions: increasing concentration
T2 construct: Western blot analysis of cultured mouse (N2A) cells; endogenous in cells; host or cells: mouse N2A cells
T2 sequence (O35718 1-225): T1 sequence (O14543 1-225) with A133T, P137S, S138L, S152P, P155A, P160T, R162K
Experimental: as §1

SOCS3 [3] = target: T3, SOCS3 (Rattus norvegicus, UniProt O88583); experiment: Western blot of phosphorylated STAT3 (SOCS3 inhibition), rat PC12 cells; assay type: cell-based; conditions: increasing concentration
T3 construct: Western blot analysis of cultured rat (PC12) cells; endogenous in cells; host or cells: rat PC12 cells
T3 sequence (O88583 1-225): T1 sequence (O14543 1-225) with K85E, P137S, S138L, S145F, P148Q, S152P, P155A, S159G, P160T, R162K
Experimental: as §1

PTEN [4] = target: T4, PTEN (Homo sapiens, UniProt P60484); experiment: Western blot of phosphorylated AKT (PTEN inhibition), human 293 cells; assay type: cell-based; conditions: increasing concentrations, pAKT (Ser473)
T4 construct: Western blot analysis of cultured human (293), mouse (N2A) and rat (PC12) cells; endogenous in cells; host or cells: human 293 cells
T4 sequence (P60484 whole entry): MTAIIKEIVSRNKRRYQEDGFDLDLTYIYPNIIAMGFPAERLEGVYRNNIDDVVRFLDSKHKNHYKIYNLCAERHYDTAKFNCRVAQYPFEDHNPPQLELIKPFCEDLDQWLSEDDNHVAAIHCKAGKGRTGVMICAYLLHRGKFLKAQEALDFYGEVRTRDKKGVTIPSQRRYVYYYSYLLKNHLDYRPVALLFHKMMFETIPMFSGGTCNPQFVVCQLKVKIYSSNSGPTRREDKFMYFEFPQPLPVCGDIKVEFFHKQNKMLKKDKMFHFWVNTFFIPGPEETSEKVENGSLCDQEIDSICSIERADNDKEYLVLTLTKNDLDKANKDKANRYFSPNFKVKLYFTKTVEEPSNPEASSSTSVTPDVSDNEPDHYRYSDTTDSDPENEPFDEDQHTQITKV
Experimental: (§2) FIGS. 13A-13D. Western blot analysis of cultured human (293) (FIG. 13A), mouse (N2A) (FIG. 13B) and rat (PC12) (FIG. 13C) cells treated with Luteolin (P2) and Quercetin (P6). FIG. 13D: Protein levels of PTEN, AKT, pAKT (Ser473) and beta-Tubulin were measured.
(§3) The inhibition of PTEN was tested following the phosphorylated form of AKT.

PTEN [5] = target: T5, PTEN (Mus musculus, UniProt O08586); experiment: Western blot of phosphorylated AKT (PTEN inhibition), mouse N2A cells; assay type: cell-based; conditions: increasing concentrations, pAKT (Ser473)
T5 construct: Western blot analysis of cultured human (293), mouse (N2A) and rat (PC12) cells; endogenous in cells; host or cells: mouse N2A cells
T5 sequence (O08586 whole entry): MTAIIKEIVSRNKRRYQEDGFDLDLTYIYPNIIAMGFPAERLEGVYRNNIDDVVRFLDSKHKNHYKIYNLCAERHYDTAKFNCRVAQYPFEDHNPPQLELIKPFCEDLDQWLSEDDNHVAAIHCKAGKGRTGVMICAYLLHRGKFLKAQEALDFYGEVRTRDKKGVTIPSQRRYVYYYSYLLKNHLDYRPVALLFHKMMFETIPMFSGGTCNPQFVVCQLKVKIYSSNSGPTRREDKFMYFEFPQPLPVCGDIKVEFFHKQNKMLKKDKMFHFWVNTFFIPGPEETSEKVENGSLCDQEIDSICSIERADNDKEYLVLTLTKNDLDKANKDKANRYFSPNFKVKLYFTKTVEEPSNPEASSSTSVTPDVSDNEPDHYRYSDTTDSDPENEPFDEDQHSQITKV
Experimental: as §2, §3

PTEN [6] = target: T6, PTEN (Rattus norvegicus, UniProt O54857); experiment: Western blot of phosphorylated AKT (PTEN inhibition), rat PC12 cells; assay type: cell-based; conditions: increasing concentrations, pAKT (Ser473)
T6 construct: Western blot analysis of cultured human (293), mouse (N2A) and rat (PC12) cells; endogenous in cells; host or cells: rat PC12 cells
T6 sequence (O54857 whole entry): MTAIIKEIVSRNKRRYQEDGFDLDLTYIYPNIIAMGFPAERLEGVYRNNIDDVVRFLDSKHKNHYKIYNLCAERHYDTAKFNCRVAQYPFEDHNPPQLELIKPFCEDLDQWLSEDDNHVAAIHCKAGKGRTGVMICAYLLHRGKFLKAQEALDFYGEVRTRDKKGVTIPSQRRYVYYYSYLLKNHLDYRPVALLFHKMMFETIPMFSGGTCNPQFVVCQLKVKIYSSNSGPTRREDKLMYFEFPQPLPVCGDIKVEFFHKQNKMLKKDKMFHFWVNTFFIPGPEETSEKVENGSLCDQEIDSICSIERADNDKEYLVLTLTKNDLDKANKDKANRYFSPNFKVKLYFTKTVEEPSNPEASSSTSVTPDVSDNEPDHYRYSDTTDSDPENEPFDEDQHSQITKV
Experimental: as §2, §3

[7] = test system: genes from the M77 network in DRG neurons; experiment: qPCR of critical PPI network genes in DRG neurons treated with ambroxol; assay type: cell-based; conditions: DRG neurons treated with 60 mM ambroxol (4 days), P-value<0.05, includes ATF3, FOS, JUN, SMAD1, SP1
Description: (§4) FIGS. 5A-5F. Targeting candidate RAG regulatory network using small-molecules. Gene expression signatures after PNS injury were used to query drug-related expression profiles in the Connectivity Map. Using a pattern-matching algorithm, we selected three drugs (ambroxol, disulfiram and lasalocid) based on enrichment and specificity scores. FIG. 5A: Protein-protein interaction (edges) network of co-expressed and differentially expressed genes (nodes) after PNS injury depicting up-regulation and down-regulation after SN lesion; up-regulation and down-regulation after ambroxol treatment (from Connectivity Map). FIG. 5B: Histogram depicting differences in DRG neurite outgrowth after treatment with drugs. […] FIG. 5C: Histogram depicting differential expression of mRNA for critical genes in PPI network validated by qPCR of DRG neurons treated with […] ambroxol (4 days). Legend (FIG. 5C, top to bottom): ATF3, CASP3, EGR1, FOS, JAK2, JUN, KLF4, MYC, PLAUR, RELA, SMAD1, SP1, STAT1 and STAT3: FIGS. 5D-5F: Ambroxol concentration response. […] FIG. 5E: Photomicrographs of DRG neurons in presence of vehicle (control) or 40 μM ambroxol, immunostained for βIII-tubulin. Images acquired using ImagExpressmicro. Scale bar, 50 μm. FIG. 5F: Histogram depicting concentration-response for neurite outgrowth per neuron vs. ambroxol concentration, mean±SEM for three independent experiments. […]

[8] = test system: optic nerve / retinal ganglion cell axons; experiment: optic nerve regeneration after crush injury in C57BL/6 mice; assay type: in vivo, mouse; conditions: between 200-500 um, after 2 weeks, vs control animals, p-value less than 0.04
Experimental: FIGS. 6A-6E. Ambroxol promotes retinal ganglion cell axonal regeneration. FIG. 6A: Ambroxol (Amb-25 mg/ml) or vehicle (Veh) was injected into the eye just before optic nerve crush (ONC-Day 1). Animals received daily […] of ambroxol (25 mg/ml) or vehicle by intraperitoneal (IP) injection from day 1 to day 14. At day 7 ambroxol (25 mg/ml) or vehicle was injected into the eye. Tracer CTB was injected into the eye on day 11 and animals sacrificed on day 14. FIG. 6B: Representative retina whole mount images with Tuj1 antibody staining 2 weeks post injury and (FIG. 6C) histogram depicting quantification of retinal ganglion cell (RGCs) survival measured by Tuj1 antibody staining Scale bar: 25 um FIG. 6D: Representative confocal images of optic nerve sections from WT animal treated with vehicle (n=10) and WT animal treated with ambroxol (25 mg/ml, n=13). Axons are labeled with CTB. Scale bar: 100 um. Measurements were made blinded to treatment. FIG. 6F: Quantification of number of axons in FIG. 6D as function of distance from crush site. T-test ** p<0.001 * p<0.05.
Ambroxol was tested for the ability to enhance CNS regeneration in vivo after injury. The optic nerve regeneration effect in mice after crush injury was evaluated after treating with and without ambroxol. […] In summary, a FDA approved drug—ambroxol accelerates and improves neural repair in the CNS. […]

[9] = test system: optic nerve / retinal ganglion cell axons; experiment: optic nerve crush in PTEN knockout mice treated with ambroxol; assay type: in vivo, mouse; conditions: at 2500 um, after 2 weeks, vs control animals, p-value 0.02
Experimental: FIGS. 15A-15E. Ambroxol promotes retinal ganglion cell axonal regeneration in PTEN knockout mice. Ambroxol (Amb-25 mg/ml) or vehicle (Veh) was injected into the eye just before optic nerve crush. Animals received daily 300 mg/kg of ambroxol or vehicle by intraperitoneal (IP) injection for the first five days after the crush and then they received 150 mg/kg until day 14. At day 7 ambroxol (25 mg/ml) or vehicle was injected into the eye. Tracer CTB was injected into the eye on day 11 and animals sacrificed on day 14. FIG. 15A: Representative confocal images of optic nerve sections from PTEN^−/− animal treated with vehicle (n=4) and PTEN^−/− animal treated with ambroxol (n=4). Axons are labeled with CTB. Scale bar: 100 um. Measurements were made blinded to treatment. FIG. 15B: Quantification of number of axons in […]. T-test ** p<0.01 * p<0.05. FIG. 15C: Representative retina whole mount images with Tuj1 and P-S6 antibody staining 2 weeks post injury and FIGS. 15D-15E: Quantification of retinal ganglion cell (RGCs) survival measured by Tuj1 and P-S6 antibody staining Scale bar: 25 um.
Without wishing to be bound by any theory, since ambroxol recapitulates many of the core expression changes in the M280, we reasoned that it would promote CNS regeneration. […]

DRG neurons = experiment: neurite outgrowth in DRG neurons after treatment with drugs; assay type: cell-based; conditions: vs control; p<0.05, t-test; FIG. 5B
Description: as §4

[10] = test system: regeneration-associated marker genes; experiment: q-RT-PCR of regeneration-associated marker genes after treatment with candidate drugs; assay type: cell-based, mouse; conditions: N2A cell lines treated 48 hours, Gapdh internal control, FIG. 10
Experimental: FIG. 10. Quantitative real-time RT-PCR after treatment of candidate drugs. N2A cell lines were treated with the corresponding drugs for 48 hours and the expression levels of the marker genes was measured by q-RT-PCR, using Gapdh as internal control. Nodes represents the genes tested, the edges represent the direction of regulation (i.e., up-regulation, downregulation) and the edge size represents the extent of fold change.
The gene expression signatures were used to identify FDA approved drugs (Lamb 2007) that may modulate the signaling pathways and gene expression necessary for regeneration. […] Based on the results obtained from the pattern matching algorithm present within the Connectivity Map database, the top three matching expression patterns were chosen based on the connectivity and specificity score, which represented the drugs (ambroxol, lasalocid, and disulfiram). The identified compounds were tested for their effect on gene expression levels of regeneration-associated marker genes and to examine the effect on neurite outgrowth in DRG neurons. […] Since the original pattern was derived from non-neuronal cell lines (30), we tested if ambroxol can change the gene-expression levels of these markers in DRG neurons. […] But, it had no previous relationship to regeneration.

Row | SMILES | expression level of phosphorylated form of STAT3 (denoting SOCS3 inhibition) (SOCS3 [1]) | expression level of phosphorylated form of STAT3 (denoting SOCS3 inhibition) (SOCS3 [2]) | expression level of phosphorylated form of STAT3 (denoting SOCS3 inhibition) (SOCS3 [3]) | expression level of phosphorylated form of AKT (denoting PTEN inhibition) (PTEN [4]) | expression level of phosphorylated form of AKT (denoting PTEN inhibition) (PTEN [5]) | expression level of phosphorylated form of AKT (denoting PTEN inhibition) (PTEN [6]) | further results
1 | O=c1c(-c2ccc(O)cc2)coc2cc(O)cc(O)c12 [Genistein, genistein] | increased expression level of phosphorylated form of STAT3 | increased expression level of phosphorylated form of STAT3 | increased expression level of phosphorylated form of STAT3 | – | – | – | –
2 | O=c1cc(-c2ccc(O)c(O)c2)oc2cc(O)cc(O)c12 [Luteolin, luteolin] | – | – | – | increased expression level of phosphorylated form of AKT | increased expression level of phosphorylated form of AKT | increased expression level of phosphorylated form of AKT | –
3 | Cc1ccc(N(CC2=NCCN2)c2cccc(O)c2)cc1 [Phentolamine, phentolamine] | increased expression level of phosphorylated form of STAT3 | increased expression level of phosphorylated form of STAT3 | increased expression level of phosphorylated form of STAT3 | – | – | – | –
4 | O=c1c(O)c(-c2ccc(O)c(O)c2)oc2cc(O)cc(O)c12 [Quercetin, quercetin] | – | – | – | increased expression level of phosphorylated form of AKT | increased expression level of phosphorylated form of AKT | increased expression level of phosphorylated form of AKT | –
5 | Nc1c(Br)cc(Br)cc1CNC1CCC(O)CC1 (stereo not drawn) [ambroxol, trans-4-(2-Amino-3,5-dibrombenzylamino)-cyclohexanol] | – | – | – | – | – | – | number of genes with significant differential expression among 14 randomly tested genes from the M77 [7]: 8 genes; increase in axon regeneration beyond the site of the lesion [8]: > 1.5 fold; increase in regeneration beyond the site of the lesion [9]: > 2.9 fold
6 | CC[C@@H](C(=O)[C@@H](C)[C@@H](O)[C@H](C)CCc1ccc(C)c(O)c1C(=O)O)[C@H]1O[C@](CC)([C@H]2CC[C@](O)(CC)[C@H](C)O2)C[C@@H]1C [lasalocid] | – | – | – | – | – | – | DRG neurite outgrowth after treatment with drugs (DRG neurons): only ambroxol showed significant enhancement; gene-expression levels of marker RAGs [10]: significant changes
